Source: patent US20060094737A1, “Novel uracil derivatives and medicinal use thereof” (Sumitomo Pharmaceuticals CO. Ltd., priority 2002, published 2006)

Legend:
[1] = test system: itch-related behavior induced by substance P; test: Inhibitory effect on the itch-related behavior of mice induced by substance P; format: in vivo, BALB/c strain male mice; conditions: frequency counted for 60 minutes, vs 0.5% CMC-Na group
Experimental: It has been reported that in the lesion part of a patient with atopic dermatitis, there are observed an increase in nerve fiber containing substance P (SP), a nerve peptide (Tobin D et al., J Allergy Clin immunol, 90, 613-22(1992)) and an increase in reactivity with SP (Gianetti A et al. Br J Dermatol, 121, 681-8(1989)). On the other hand, it has been reported that when SP is administered to the cervicodorsal part of a mouse, itch-related behavior is induced (Kuraishi Y et al. Eur J Pharmacol, 275, 229-33(1995)) and is suppressed by a certain antiallergic agent (Inagaki N et al. Eur J Pharmacol, 400, 73-9(2000)). Therefore, in order to verify the itch-inhibiting effect of the uracil derivatives of the present invention, the itch-inhibiting effect was evaluated by employing the effect of the uracil derivatives on itch-related behavior induced by SP, as an indication. Each of BALB/c strain male mice was previously transferred to a cage for observation and allowed to acclimate to an observation environment, and then SP was subcutaneously administered (200 μg/mouse) to the cervicodorsal part of the mouse. After the administration, the mouse was returned to the cage for observation and the frequency of its itch-related behavior was measured for 60 minutes after the return. Each test drug was suspended in a 0.5% CMC-Na solution and orally administered in a dose of 10 mg/kg 30 minutes before the administration of SP. For evaluating the itch-inhibiting effect, the inhibition rate of the test drug was calculated as an indication as follows by comparison with a group treated with a 0.5% CMC-Na solution. As a comparative example, an antiallergic agent Oxatomide, which is considered as an agent having itch-inhibiting effect, was administered in a dose of 3 times that of the test drug (30 mg/kg). [formula]

[2] = test system: dermatitis induced by picryl chloride (type IV allergic inflammation); test: Inhibitory effect on dermatitis induced by picryl chloride, test compound applied on the ear; format: in vivo, ICR strain male mice; conditions: 0.04 ml of 0.25% (w/v) test compound/acetone on the ear; ear thickness 24 hours after the causing; relative to 2.5% (w/v) comparative compound 1 (10 times the amount)
Experimental: In order to verify the inflammation-inhibiting effect of the uracil derivative of the present invention, its effect on dermatitis induced by picryl chloride, a model of typical type IV allergic inflammation was evaluated by adopting the method of Asherson et al. (Immunology, 15, 405 (1968)). On the abdominal skin of each of ICR strain male mice was applied 0.1 ml of a 7% (w/v) picryl chloride/acetone solution to induce sensitization. On the seventh days after the sensitization, 0.02 ml of a 1% (w/v) picryl chloride/acetone solution was applied on the ear of each mouse to cause an allergic reaction. […] Twenty-four hours after the causing, the thickness of the ear was measured and the dermatitis-inhibiting effect of the test compound was evaluated by employing the difference between the thickness of the ear 24 hours after the causing and that before the causing as an indication. […]
From the difference of the ear thickness before and after the causing of the allergic reaction in the case of each group, the relative degree of efficacy of the test compound in the inhibition of ear enlargement was calculated according to the following equation by comparison with a group treated with the comparative compound in an amount of 10 times that of the test compound: [formula]

[3] = test system: dermatitis induced by picryl chloride (type IV allergic inflammation); test: Inhibitory effect on dermatitis induced by picryl chloride, oral administration; format: in vivo, ICR strain male mice; conditions: oral 10 mg/kg in 0.5% CMC-Na one hour before the causing; relative to comparative compound 1 oral 100 mg/kg
Experimental: The effect on the animal model in Evaluation Example 1 was verified by oral administration. ICR strain male mice were sensitized in the same manner as in Evaluation Example 1, and on the seventh days after the sensitization, 0.02 ml of a 1% (w/v) picryl chloride/acetone solution was applied on the ear of each mouse to cause an allergic reaction. Each test compound was suspended in a 0.5% CMC-Na solution and orally administered in a dose of 10 mg/kg one hour before the causing of the allergic reaction. As a comparative example, the above-mentioned comparative compound 1 disclosed in Japanese Patent No. 3093170 was orally administered in a dose of 100 mg/kg to make a comparison.

[4] = oral 10 mg/kg 30 minutes before SP (200 μg/mouse s.c.)

Row | Structure (SMILES) | Degree of efficacy (relative degree of efficacy in the inhibition of ear enlargement) [3] | also measured
1 | Cc1c(O)c(C)c(C(=O)Nc2c(N)n(-c3cccc4ccccc34)c(=O)n(C)c2=O)c2c1CCC(C)(C)O2 [Example 2, 6-amino-5-(6-hydroxy-2,2,5,7-tetramethyl-chroman-8-carboxamide)-3-methyl-1-(1-naphthyl)uracil] |  | Inhibition rate (%) of itch-related behavior [1, 4]: 71%
2 | Cc1cc(OCC(=O)Nc2c(N)n(-c3cccc4ccccc34)c(=O)n(C)c2=O)c(C)c(C)c1O [Example 4, 6-amino-5-[(4-hydroxy-2,3,5-trimethyl)phenoxy]acetamide-3-methyl-1-(1-naphthyl)uracil] |  | Degree of efficacy (relative degree of efficacy in the inhibition of ear enlargement) [2]: 0.9
3 | Cc1cc(OCC(=O)Nc2c(N)n(-c3cccc4ccccc34)c(=O)n(C)c2=O)c(C)c(C)c1N [Example 5, 6-amino-5-[(4-amino-2,3,5-trimethyl)phenoxy]acetamide-3-methyl-1-(1-naphthyl)uracil] |  | Degree of efficacy (relative degree of efficacy in the inhibition of ear enlargement) [2]: 1.1; Inhibition rate (%) of itch-related behavior [1, 4]: 53%
4 | CCn1c(=O)c(NC(=O)c2c(C)c(O)c(C)c3c2OC(C)(C)CC3)c(N)n(-c2cccnc2OC)c1=O [Example 10, 6-amino-3-ethyl-5-(6-hydroxy-2,2,5,7-tetramethylchroman-8-carboxamide)-1-(2-methoxypyridin-3-yl)uracil] | 1.6 | 
5 | CCCCn1c(=O)c(NC(=O)c2c(C)c(O)c(C)c3c2OC(C)(C)C3)c(N)n(-c2cccc3ccccc23)c1=O [Example 14, 6-amino-3-butyl-5-(6-hydroxy-2,2,5,7-tetramethyl-3-oxaindan-4-carboxamide)-1-(1-naphthyl)uracil] | 1.0 | 
6 | CCn1c(=O)c(NC(=O)c2c(C)c(O)c(C)c3c2OC(C)(C)C3)c(N)n(-c2cccc3c2CCC3)c1=O [Example 20, 6-amino-3-ethyl-5-(6-hydroxy-2,2,5,7-tetramethyl-3-oxaindan-4-carboxamide)-1-(4-indanyl)uracil] | 1.2 | 
7 | Cc1c(O)c(C)c(C(=O)Nc2c(N)n(-c3cccc4c3CCCC4)c(=O)n(C)c2=O)c2c1CC(C)(C)O2 [Example 22, 6-amino-3-methyl-5-(6-hydroxy-2,2,5,7-tetramethyl-3-oxaindan-4-carboxamide)-1-(5,6,7,8-tetrahydro-1-naphthyl)uracil] | 1.3 | 
8 | Cc1cccc(-n2c(N)c(NC(=O)COc3cc(C)c(N)c(C)c3C)c(=O)n(C)c2=O)c1C [Example 29, 6-amino-5-[(4-amino-2,3,5-trimethyl)phenoxy]acetamide-3-methyl-1-(2,3-dimethylphenyl)uracil] | 1.4 | 
9 | CNc1c(NC(=O)COc2cc(C)c(N)c(C)c2C)c(=O)n(C)c(=O)n1-c1cccc(C)c1C [Example 30, 6-methylamino-5-[(4-amino-2,3,5-trimethyl)phenoxy]acetamide-3-methyl-1-(2,3-dimethylphenyl)uracil] | 1.6 | 
10 | O=c1[nH]c2ccccc2n1CCCN1CCN(C(c2ccccc2)c2ccccc2)CC1 [Oxatomide, reference compound] |  | Inhibition rate (%) of itch-related behavior ([1]; oral 30 mg/kg 30 minutes before SP (200 μg/mouse s.c.)): 39%
